The subject of series [1] is MOLM-13. In words: Antiproliferative activity, MTT assay. In kind it is cell-based, human. The conditions noted are these: read-out: IC50 MOLM-13; 48 h of treatment; mean ± SEM.
For series [2], the system named is HL-60. Briefly: Antiproliferative activity, MTT assay. The series is classed as cell-based, human. As to conditions: read-out: IC50 HL-60; 48 h of treatment; mean ± SEM.
Series [3] has as its system M21. Briefly: Antiproliferative activity, SRB assay. In kind it is cell-based, human. The conditions noted are these: read-out: IC50 M21; 48 h of treatment; mean ± SEM. In general terms: In SRB staining, fixed cells bind dye roughly in proportion to their protein.
Series [4] in a line: physchem. The conditions noted are these: ultrapure water, 37 °C, kinetic from dmso stock.
Series [5] has as its system HT-1080. In words: Antiproliferative activity, SRB assay. The series is classed as cell-based, human. As to conditions: read-out: IC50 HT-1080; 48 h of treatment; mean ± SEM.
Series [6] deals with MCF7. In words: Antiproliferative activity, SRB assay. The series is classed as cell-based, human. As to conditions: read-out: IC50 MCF7; 48 h of treatment; mean ± SEM.
The subject of series [7] is histone H2AX. Briefly: H2AX phosphorylation, immunofluorescence in M21 cells. As to conditions: 24 h at 2-fold IC50. In kind it is cell-based, human.
In series [8] the test system is HT-29. Briefly: Antiproliferative activity, SRB assay. In kind it is cell-based, human. As to conditions: read-out: IC50 HT-29; 48 h of treatment; mean ± SEM.
For series [9], the system named is THP-1. In words: Antiproliferative activity, MTT assay. As to conditions: read-out: IC50 THP-1; 48 h of treatment; mean ± SEM. The series is classed as cell-based, human. (In general: Tetrazolium dyes change colour on reduction, which living cells bring about.)

Values after ≈ are worked out from the molar mass of the structure shown. Where only a bound is given, the exact number is not on record here.

In general, IC50 refers to the concentration that gives 50% inhibition. For orientation: solubility means the concentration that dissolves in the medium under given conditions. Read a high solubility as a readily soluble substance. Take `CCNC(=O)Nc1ccc(S(=O)(=O)Oc2cccnc2I)cc1` [Compound 2, 2-Iodopyridin-3-yl 4-(3-ethylureido)benzenesulfonate]: the IC50 worked out at 0.9 ± 0.3 µM in series [1]; 25 ± 4 µM in [2]; 13 ± 2 µM in series [3]; 1.4 ± 0.1 µM in [5]; 11 ± 1 µM in series [6]; 10.6 ± 0.9 µM in series [8]. Also, the IC50 in series [9] stood at 3.8 ± 0.6 µM. The same molecule registered a solubility at 24 h in series [4] of 57 ± 3 µg/mL (≈ 127 µM). Moreover, the “Phosphorylation of H2AX into γH2AX (γH2AX foci)” value in series [7] was “promote the phosphorylation of H2AX into γH2AX”.

Turning to `CCNC(=O)Nc1ccc(S(=O)(=O)Oc2cccnc2C(C)C)cc1` [Compound 3, 2-Isopropylpyridin-3-yl 4-(3-ethylureido)benzenesulfonate], the IC50 came out at 0.8 ± 0.2 µM in series [1]; 29 ± 6 µM in series [2]; 7 ± 1 µM in [3]; 1.2 ± 0.2 µM in series [5]; 19 ± 2 µM in [6]; 8.4 ± 0.7 µM in series [8]. Further, the half-inhibitory concentration (IC50) in [9] came out at 1.5 ± 0.3 µM. The amount in solution in series [4] (solubility at 24 h) came to 40 ± 3 µg/mL (≈ 110 µM). The “Phosphorylation of H2AX into γH2AX (γH2AX foci)” value in series [7] is “promote the phosphorylation of H2AX into γH2AX”.

Consider `CCCNC(=O)Nc1ccc(S(=O)(=O)Oc2cnccc2Br)cc1.Cl` [Compound 33, 4-Bromopyridin-3-yl 4-(3-propylureido)benzenesulfonate hydrochloride], for which the IC50 in [1] turned out to be 6 ± 1 µM; in [2], 40 ± 10 µM; in series [3], 40 ± 1 µM; in series [5] it was 10 ± 0.8 µM; in [6], 24 ± 2 µM; in series [8], 30 ± 1 µM. For the same molecule, the IC50 in series [9] is 4.1 ± 0.7 µM. Besides, the solubility at 24 h in series [4] was determined as 124 ± 2 µg/mL.

With `CCCNC(=O)Nc1ccc(S(=O)(=O)Oc2cccnc2Br)cc1` [Compound 5, 2-Bromopyridin-3-yl 4-(3-propylureido)benzenesulfonate], the IC50 in series [1] is 2.6 ± 0.1 µM; in series [2], 19 ± 2 µM; in [3], 24 ± 2 µM; in series [5] it was 3.3 ± 0.2 µM; in series [6], 13 ± 1 µM; in series [8] it was 17 ± 1 µM. Also, in [9], the IC50 was 5.9 ± 0.5 µM. Further, in [4], the concentration in solution (solubility at 24 h) was 8 ± 1 µg/mL (≈ 19.3 µM).

For the molecule `CCCNC(=O)Nc1ccc(S(=O)(=O)Oc2cnccc2C)cc1.Cl` [Compound 35, 4-Methylpyridin-3-yl 4-(3-propylureido)benzenesulfonate hydrochloride], the IC50 in series [1] was 9.2 ± 0.8 µM; in series [2], 16.3 ± 0.1 µM; in series [3], 56 ± 3 µM; in series [5] it was 21 ± 2 µM; in [6], 58 ± 8 µM; in [8], 39 ± 2 µM. Besides, in [9], the IC50 stood at 5 ± 2 µM. The solubility at 24 h in series [4] was found to be 138 ± 2 µg/mL.

With `CCNC(=O)Nc1ccc(S(=O)(=O)Oc2cccnc2C)cc1` [Compound 4, 2-Methylpyridin-3-yl 4-(3-ethylureido)benzenesulfonate], the IC50 in [1] was determined as 6 ± 2 µM; in series [2] it was 50 ± 10 µM; in [3], 79 ± 4 µM; in [5] it was 10.2 ± 0.8 µM; in [6], 20 ± 3 µM; in series [8], 56 ± 3 µM. The IC50 in [9] worked out at 4.4 ± 0.2 µM. In series [4], the solubility at 24 h was 55 ± 1 µg/mL (≈ 164 µM).

For `CCNC(=O)Nc1ccc(S(=O)(=O)Oc2cnccc2C)cc1.Cl` [Compound 32, 4-Methylpyridin-3-yl 4-(3-ethylureido)benzenesulfonate hydrochloride], the IC50 in [1] is 2.4 ± 0.3 µM; in series [2] it was greater than 100 µM; in series [3], 35 ± 4 µM; in series [5], 5.9 ± 0.7 µM; in [6], 26 ± 2 µM; in [8], 9.6 ± 0.7 µM. Besides, in series [9], the IC50 was determined as 2.9 ± 0.1 µM. This molecule also registered a solubility at 24 h in series [4] of 98 ± 7 µg/mL.

With `Cl.O=C(NCCCl)Nc1ccc(S(=O)(=O)Oc2cccnc2Br)cc1` [Compound 27, 2-Bromopyridin-3-yl 4-(3-(2-chloroethyl)ureido)benzenesulfonate hydrochloride], the IC50 in series [1] is 4.8 ± 0.7 µM; in series [2] it was greater than 50 µM; in [3] it was 30 ± 2 µM; in [5] it was 5.5 ± 0.4 µM; in series [6], 16 ± 1 µM; in [8], 33 ± 1 µM. Further, the half-maximal inhibitory concentration (IC50) in [9] came to 4.9 ± 0.3 µM. The molecule further showed a solubility at 24 h in series [4] of 189 ± 5 µg/mL.

As for `CCNC(=O)Nc1ccc(S(=O)(=O)Oc2cnccc2Br)cc1.Cl` [Compound 30, 4-Bromopyridin-3-yl 4-(3-ethylureido)benzenesulfonate hydrochloride], the IC50 is 3.7 ± 0.5 µM in series [1]; 80 ± 5 µM in [2]; 44 ± 3 µM in series [3]; 6.7 ± 0.4 µM in [5]; 45 ± 4 µM in series [6]; 45 ± 4 µM in series [8]. For the same molecule, the IC50 in series [9] was 6 ± 2 µM. The molecule further had a solubility at 24 h in series [4] of 122 ± 4 µg/mL.

For `CCNC(=O)Nc1ccc(S(=O)(=O)Oc2cnccc2I)cc1.Cl` [Compound 31, 4-Iodopyridin-3-yl 4-(3-ethylureido)benzenesulfonate hydrochloride], the IC50 amounted to 1.4 ± 0.4 µM in [1]; 32 ± 9 µM in series [2]; 11 ± 1 µM in [3]; 5.3 ± 0.4 µM in series [5]; 19 ± 3 µM in series [6]; 11 ± 1 µM in series [8]. Further, in series [9], the IC50 was 2.2 ± 0.3 µM. The molecule further yielded a solubility at 24 h in series [4] of 165 ± 3 µg/mL.

Turning to `Cl.O=C(NCCCl)Nc1ccc(S(=O)(=O)Oc2cccnc2I)cc1` [Compound 28, 2-Iodopyridin-3-yl 4-(3-(2-chloroethyl)ureido)benzenesulfonate hydrochloride], the IC50 in series [1] is 2.4 ± 0.4 µM; in [2], 19 ± 4 µM; in series [3], 15 ± 1 µM; in [5], 3.1 ± 0.2 µM; in series [6], 13 ± 1 µM; in series [8], 21 ± 1 µM. For the same molecule, the 50% inhibitory concentration (IC50) in series [9] was determined as 1.8 ± 0.7 µM. The same molecule had a solubility at 24 h in [4] of 37 ± 2 µg/mL.

As to `CCCNC(=O)Nc1ccc(S(=O)(=O)Oc2cccnc2C(C)C)cc1.Cl` [Compound 25, 2-Isopropylpyridin-3-yl 4-(3-propylureido)benzenesulfonate hydrochloride], the IC50 in series [1] was 1.9 ± 0.5 µM; in [2] it was 8 ± 3 µM; in series [3], 20 ± 1 µM; in [5], 2.4 ± 0.2 µM; in series [6] it was 16 ± 1 µM; in series [8] it was 15 ± 0.8 µM. Besides, the IC50 in [9] was 2.4 ± 0.9 µM. The molecule further had a solubility at 24 h in series [4] of 26 ± 3 µg/mL.

For the molecule `Cl.O=C(NCCCl)Nc1ccc(S(=O)(=O)Oc2cnccc2I)cc1` [Compound 36, 4-Iodopyridin-3-yl 4-(3-(2-chloroethyl)ureido)benzenesulfonate hydrochloride], the half-maximal inhibitory concentration (IC50) in series [1] was 0.7 ± 0.2 µM; in [2], 3 ± 1 µM; in [3], 3.5 ± 0.4 µM; in [5], 1.2 ± 0.2 µM; in series [6], 3.8 ± 0.3 µM; in series [8] it was 2.3 ± 0.1 µM. In addition, in series [9], the IC50 worked out at 0.9 ± 0.2 µM. Further, the solubility at 24 h in series [4] worked out at 154 ± 7 µg/mL.

As for `CCCNC(=O)Nc1ccc(S(=O)(=O)Oc2cccnc2I)cc1` [Compound 6, 2-Iodopyridin-3-yl 4-(3-propylureido)benzenesulfonate], the IC50 in series [1] was determined as 2.2 ± 0.3 µM; in series [2], 24 ± 5 µM; in series [3] it was 17 ± 1 µM; in series [5], 2 ± 0.2 µM; in series [6] it was 13 ± 1 µM; in series [8], 16 ± 1 µM. Also, the half-inhibitory concentration (IC50) in series [9] amounted to 2.4 ± 0.1 µM. Further, the solubility at 24 h in series [4] worked out at 23 ± 2 µg/mL (≈ 49.9 µM).
